The values that follow come from patent US20070155707A1 (Kadmus Pharmaceuticals, Inc., priority 2005, published 2007).

One series deals with FAAH. The following applies: Kathuria 2003; Mor 2004; WO 2004/033422; cited from earlier work.
For series [1], the target named is T1, fatty acid amide hydrolase (FAAH) (Homo sapiens, UniProt O00519).
T1 construct: 25 μL of human liver microsomes (31.3 μg); from tissue; host or cells: human liver microsomes
T1 sequence (O00519 1-579): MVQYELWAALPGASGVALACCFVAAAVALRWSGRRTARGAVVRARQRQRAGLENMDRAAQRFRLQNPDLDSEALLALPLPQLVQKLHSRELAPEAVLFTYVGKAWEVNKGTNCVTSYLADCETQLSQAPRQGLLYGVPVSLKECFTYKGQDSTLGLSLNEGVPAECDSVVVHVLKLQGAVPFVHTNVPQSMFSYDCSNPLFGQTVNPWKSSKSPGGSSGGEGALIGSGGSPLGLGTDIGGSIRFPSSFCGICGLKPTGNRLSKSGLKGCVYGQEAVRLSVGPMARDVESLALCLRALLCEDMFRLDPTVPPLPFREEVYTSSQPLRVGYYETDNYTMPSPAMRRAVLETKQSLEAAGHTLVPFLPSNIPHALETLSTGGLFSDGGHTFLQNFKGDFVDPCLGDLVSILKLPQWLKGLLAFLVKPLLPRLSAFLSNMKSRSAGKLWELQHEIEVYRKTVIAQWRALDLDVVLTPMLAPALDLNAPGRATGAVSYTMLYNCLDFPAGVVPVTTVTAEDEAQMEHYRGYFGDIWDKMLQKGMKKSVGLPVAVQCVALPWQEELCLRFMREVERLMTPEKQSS
Nature of the series: FAAH LC-MS/MS screening assay, IC50 determination (anandamide hydrolysis by human liver microsomes). The class given is biochemical. As to conditions: inhibition of FAAH activity. How it is done:
For determining IC50 values for candidate FAAH inhibitor compounds, the above method is used with an adjusted FAAH inhibitor concentration. In the IC50 assay, the FAAH inhibitor is added at a concentration range of approximately 3 μM to 0.03 nM. The final calculation of IC50 is determined by first transforming the concentrations by “X=log(X)” and then analyzing the data with a sigmoidal dose-response curve (no constraints) using GraphPad Prism version 4.00 for Windows (GraphPad Software, San Diego Calif. USA, www.graphpad.com).
On the technique in general: Microsomes from liver hold many membrane-bound enzymes, among them those of drug oxidation.

Series [2] is described as follows: Determination of pharmacokinetics in rats following oral administration (plasma and brain). As to conditions: for AUC / Cmax: rat, plasma; for AUC / Cmax / Brain AUC / Brain Cmax: 10 mg/kg oral gavage, solution. In kind it is in vivo, rat. The procedure: Potential FAAH inhibitors are formulated for oral (p.o.), intraperitoneal (i.p.) or intravenous (i.v.) delivery to rats. Formulated compounds are administered and the animals were sacrificed at pre-determined time points post dose. At sacrifice, blood samples are collected into EDTA plasma tubes and whole brains were snap frozen in liquid nitrogen. EDTA plasma was isolated from blood samples after centrifugation. Brain and plasma samples are stored at −80° C. prior to analysis. All samples (brain and plasma) are analyzed for the concentrations of test compound (FAAH inhibitor), metabolites of the test compound and endogenous fatty acid ethanolamide levels (including anandamide, oleoylethanolamide, and palmitoylethanolamide) by LC-MS/MS. Levels of these compounds are compared across time points to determine pharmacokinetic properties of the test compounds and partial pharmacological effects of inhibiting FAAH activity (including changes of fatty acid ethanolamide levels).
The pharmacokinetic properties of compounds provided herein were assessed in rats following oral administration as a solution. […] The solution of the test compound was administered to rats at a dose of 10 mg/kg via oral gavage.

Each structure is given as a SMILES string.

`NC(=O)c1cccc(-c2cccc(OC(=O)NC3CCCCC3)c2)c1`: in the series on FAAH, the “Inhibition of FAAH activity (in words)” value was “potent and selective inhibitors of FAAH activity”.

With `O=C(NCC1CCCCC1)Oc1cccc(C(=O)O)c1` [Compound 2, 3-(Cyclohexylmethylcarbamoyloxy)benzoic acid], the concentration for half-maximal inhibition (IC50) (as a rule, the concentration that gives 50% inhibition) in series [1] was < 100 nM. In series [2], the AUC – broadly, concentration integrated over time – came to 1700 ng·h/mL and the Cmax – broadly, the highest concentration seen after dosing – stood at 1250 ng/mL.

With `O=C(NCC1CCCCC1)Oc1ccc(C(=O)O)cc1` [Compound 4, 4-(Cyclohexylmethylcarbamoyloxy)benzoic acid], the 50% inhibitory concentration (IC50) in series [1] was < 100 nM. Besides, in series [2], the “Brain AUC” value stood at 483 ng·h/g, the “Brain Cmax” value was determined as 475 ng/g, the area under the curve (AUC) is 8840 ng·h/mL and the Cmax was 7720 ng/mL. Further, the “Crossing of the blood brain barrier” value in series [2] (10 mg/kg oral, conclusion from Table 2) is “does not substantially cross the blood brain barrier”.

As to `O=C(O)Cc1cccc(OC(=O)NCC2CCCCC2)c1` [Compound 7], the half-maximal inhibitory concentration (IC50) in series [1] was < 100 nM.

For the molecule `O=C(NCC1CCCCC1)Oc1cccc(-c2nnn[nH]2)c1` [Compound 11, 3-(1H-Tetrazol-5-yl)phenyl cyclohexylmethylcarbamate], in series [1], the concentration for half-maximal inhibition (IC50) is < 100 nM.

Turning to `NC(=O)c1cccc(-c2cccc(OC(=O)NC3CCCCC3)c2)c1` [KDS-4103, reference compound], in series [2], the “Brain AUC” value was 9,737 ng * hr/g, the “Brain Cmax” value is on record as 4,584 ng/g, the AUC was 6730 ng·h/mL and the maximum concentration (Cmax) worked out at 3160 ng/mL.
